Test results from patent US20080269326A1, “Use of 1-Phenyl-3-Dimethylamino-propane Compounds for Treating Neuropathic Pain” (GRUENENTHAL GmbH, priority 2007, published 2008).
Values joined by “and” are separate entries in the source; they are usually repeats but may differ in a detail not shown here. Equal entries are not always repeated.

How the values were obtained:
Type in all cases: in vivo, rat
[1] = system: mechanical hyperalgesia in diabetic animals; experiment: Streptozotocin diabetic neuropathy, mechanical hyperalgesia (Randall and Sellito); details: diabetic rats
Description: Male Sprague-Dawley rats weighing 160-180 g received an intra-peritoneal injection of streptozotocin (75 mg/kg body weight) dissolved in pH 4.6 citrate buffer. One week later diabetic animals were identified by measuring the blood glucose level, and those with a blood glucose level of ≧17 mM were included in the study. Three and four weeks after administration of streptozotocin the mechanical reaction threshold was measured in diabetic animals by the method of Randall and Sellito (1957 Arch. Int. Pharmacody. […]:409-419) before (pre-test) and at various times after administration of the test substance or vehicle (post-test). […] The maximum pressure exerted on the rear paw was 250 g. The end point of the mechanical reaction threshold in grams was determined based on the reaction of the animal (withdrawal of the rear paw, vocalisation or evasive reaction). The size of the cohort in the individual dose stages was n=10. The maximum possible response in percent (% MPE=% of maximum possible effect) was calculated according to the formula:
% MPE=(post-test−pre-test)/(250−pre-test)×100.
ED50 values (dose at which 50% maximum inhibition occurred) were determined by regression analysis from the % MPE values at the time of the maximum effect.

[2] = system: mononeuropathic pain, withdrawal threshold of rear paw; experiment: Mononeuropathy (spinal nerve ligature, SNL), withdrawal threshold by electronic von Frey filament
Description: (§1) Male Sprague Dawley rats (140-180g, Janvier, France) are kept under standard conditions (06.00-18.00 hours light, 18.00-06.00 hours darkness; 20°-24° C. room temperature; 35-70% relative atmospheric humidity, tap water and standard feed as desired) in groups of five animals in Macrolon type 4 cages.
Under pentobarbital narcosis (Narcoren, 60 mg/kg i.p., Merial GmbH, Germany) the spinal nerves L5 and L6 are tightly bound unilaterally on the left side with a silk thread (NC silk black, USP 5/0, metric 1, Braun Melsungen A G, Germany) (Kim and Chung, Pain 1992; 50: 355-63). After the operation the animals were allowed to recover for one week and within this time developed a hypersensitivity on the ipsilateral (left) paw. The hypersensitivity to a pressure stimulus can be measured using an electronic von Frey filament (Somedic, Sweden). For this purpose the animals are placed on a grating under a hood. After the animals became accustomed to the surroundings the damaged (ipsilateral, left) and undamaged (contralateral, right) rear paws are subjected to increasing pressure on the underside of the paw until the animal tries to retract the corresponding paw. The median value of five tests defines the withdrawal threshold of a test time point. The animals are tested on both rear paws before and at various times after administration of the substance or vehicle. For each animal the difference between the test value and pre-test for the ipsilateral and contralateral side is determined, and the result is expressed as the mean value (MW) and standard error of the mean (SEM) for the groups consisting in each case of 10 animals. The difference between the mean difference values of the ipsilateral and contralateral side defines the hypersensitivity induced by mononeuropathy. The statistical significance of the effect of a substance is determined on the basis of the difference values compared to the vehicle group for the ipsilateral and contralateral side, by means of bifactorial variance analysis and post hoc analysis according to Bonferroni.

[3] = system: polyneuropathic pain, withdrawal threshold of rear paw; experiment: Polyneuropathy (streptozotocin-induced diabetic neuropathy, STZ), withdrawal threshold by Randall and Selitto
Description: as §1
Rats receive a single i.p. dose of Streptozotocin (STZ, Sigma Aldrich Chemie, Germany) or vehicle (0.1 mM citrate buffer, pH 4.6). After one week the blood sugar values are determined and animals treated with STZ that have a blood sugar value of ≧17 mM are classed as diabetic in the experiment. Diabetic animals develop a hypersensitivity in the rear paws. The hypersensitivity to a pressure stimulus can be measured using a pressure pain instrument (algesiometer; Ugo Basile, Italy) according to the method of Randall and Selitto (Arch. Int. Pharmcodyn. 1957; 111: 409-19) in diabetic animals compared to healthy control animals of the same weight, in the third week after STZ treatment. After the animals had become accustomed to the surroundings, the rear right paw of damaged (diabetic) and undamaged (healthy) animals was subjected to increasing pressure on the upper side of the paw until the corresponding paw is withdrawn or the animal gives a vocal response. This value defines the withdrawal threshold of a test time point. Diabetic and healthy animals are tested before and at various times after administration of the substance or vehicle. For each animal the difference between the test value and pre-test is determined, and for the groups, each consisting of ten animals, the result is expressed as the mean value (MW) and standard error of the mean (SEM). The difference between the mean difference values of the diabetic and healthy animals defines the polyneuropathy-induced hypersensitivity. The statistical significance of the effect of a substance is determined on the basis of the difference values with respect to the vehicle group for diabetic and healthy animals by means of bifactorial variance analysis and post hoc analysis according to Bonferroni.

CC[C@@H](c1cccc(O)c1)[C@@H](C)CN(C)C [Compound 9, (1R,2R)-3-(3-dimethylamino-1-ethyl-2-methylpropyl)-phenol]
ED50 ([1]; Rattus norvegicus, ip, i.p., read-out: Mechanical hyperalgesia ED50 (95% confidence region)): 8.9 mg/kg
Mechanical hyperalgesia Maximum effect in % MPE ([1]; 31.6 mg/kg i.p.): 100% (31.6 mg/kg) % MPE
maximum effect compared among the tested compounds ([1]; i.p.): highest maximum effect
withdrawal threshold, test value - pre-test value (MW) ([2]; 0.1 mg/kg i.v., Contra, 30 min): 0.06 g
withdrawal threshold, test value - pre-test value (MW) ([2]; 0.1 mg/kg i.v., Contra, 60 min): -3.13 g
withdrawal threshold, test value - pre-test value (MW) ([2]; 0.1 mg/kg i.v., Contra, 180 min): -4.30 g
withdrawal threshold, test value - pre-test value (MW) ([2]; 0.1 mg/kg i.v., Ipsi, 30 min): 1.74 g
withdrawal threshold, test value - pre-test value (MW) ([2]; 0.1 mg/kg i.v., Ipsi, 60 min): -0.59 g
withdrawal threshold, test value - pre-test value (MW) ([2]; 0.1 mg/kg i.v., Ipsi, 180 min): -2.24 g
withdrawal threshold, test value - pre-test value (MW) ([2]; 0.316 mg/kg i.v., Contra, 30 min): 0.39 g
withdrawal threshold, test value - pre-test value (MW) ([2]; 0.316 mg/kg i.v., Contra, 60 min): ta −6.20 g
withdrawal threshold, test value - pre-test value (MW) ([2]; 0.316 mg/kg i.v., Contra, 180 min): 2.21 g
withdrawal threshold, test value - pre-test value (MW) ([2]; 0.316 mg/kg i.v., Ipsi, 30 min): 5.78 g
withdrawal threshold, test value - pre-test value (MW) ([2]; 0.316 mg/kg i.v., Ipsi, 60 min): 2.21 g
withdrawal threshold, test value - pre-test value (MW) ([2]; 0.316 mg/kg i.v., Ipsi, 180 min): 1.68 g
withdrawal threshold, test value - pre-test value (MW) ([2]; 1 mg/kg i.v., Contra, 30 min): 2.90 g
withdrawal threshold, test value - pre-test value (MW) ([2]; 1 mg/kg i.v., Contra, 60 min): 2.45 g
withdrawal threshold, test value - pre-test value (MW) ([2]; 1 mg/kg i.v., Contra, 180 min): -6.65 g
withdrawal threshold, test value - pre-test value (MW) ([2]; 1 mg/kg i.v., Ipsi, 30 min): 12.86 g
withdrawal threshold, test value - pre-test value (MW) ([2]; 1 mg/kg i.v., Ipsi, 60 min): 7.09 g
withdrawal threshold, test value - pre-test value (MW) ([2]; 1 mg/kg i.v., Ipsi, 180 min): 2.01 g
withdrawal threshold, test value - pre-test value (MW) ([2]; 3.16 mg/kg i.v., Contra, 30 min): 8.02 g
withdrawal threshold, test value - pre-test value (MW) ([2]; 3.16 mg/kg i.v., Contra, 60 min): 2.85 g
withdrawal threshold, test value - pre-test value (MW) ([2]; 3.16 mg/kg i.v., Contra, 180 min): -0.34 g
withdrawal threshold, test value - pre-test value (MW) ([2]; 3.16 mg/kg i.v., Ipsi, 30 min): 18.43 g
withdrawal threshold, test value - pre-test value (MW) ([2]; 3.16 mg/kg i.v., Ipsi, 60 min): 20.32 g
withdrawal threshold, test value - pre-test value (MW) ([2]; 3.16 mg/kg i.v., Ipsi, 180 min): 11.06 g
withdrawal threshold, test value - pre-test value (MW) ([2]; 10 mg/kg i.v., Contra, 30 min): 31.85 g
withdrawal threshold, test value - pre-test value (MW) ([2]; 10 mg/kg i.v., Contra, 60 min): 10.62 g
withdrawal threshold, test value - pre-test value (MW) ([2]; 10 mg/kg i.v., Contra, 180 min): 4.51 g
withdrawal threshold, test value - pre-test value (MW) ([2]; 10 mg/kg i.v., Ipsi, 60 min): [drawing 7] 19.47 g
withdrawal threshold, test value - pre-test value (MW) ([2]; 10 mg/kg i.v., Ipsi, 180 min): 13.65 g
inhibition of the mononeuropathically-induced withdrawal threshold reduction ([2]; 10 mg/kg i.v., after 30 minutes, ipsilateral): full inhibition
statistically significant minimal effective dose ([2]; i.v., contralateral withdrawal threshold): 10 mg/kg
statistically significant minimal effective dose ([2]; i.v., ipsilateral rear paw, mononeuropathic rats): 1 mg/kg
dosage at which complete inhibition is reached ([2]; i.v., mononeuropathic pain model): 10 mg/kg
withdrawal threshold, test value - pre-test value (MW) ([3]; 0.1 mg/kg i.v., Diabetes, 15 min): 1.0 g
withdrawal threshold, test value - pre-test value (MW) ([3]; 0.1 mg/kg i.v., Diabetes, 30 min): -2.0 g
withdrawal threshold, test value - pre-test value (MW) ([3]; 0.1 mg/kg i.v., Diabetes, 45 min): 6.0 g
withdrawal threshold, test value - pre-test value (MW) ([3]; 0.1 mg/kg i.v., Diabetes, 60 min): -2.0 g
withdrawal threshold, test value - pre-test value (MW) ([3]; 0.1 mg/kg i.v., Naive, 15 min): 4.0 g
withdrawal threshold, test value - pre-test value (MW) ([3]; 0.1 mg/kg i.v., Naive, 30 min): -12.0 g
withdrawal threshold, test value - pre-test value (MW) ([3]; 0.1 mg/kg i.v., Naive, 45 min): -2.0 g
withdrawal threshold, test value - pre-test value (MW) ([3]; 0.1 mg/kg i.v., Naive, 60 min): -5.0 g
withdrawal threshold, test value - pre-test value (MW) ([3]; 0.316 mg/kg i.v., Diabetes, 15 min): 35.0 g
withdrawal threshold, test value - pre-test value (MW) ([3]; 0.316 mg/kg i.v., Diabetes, 30 min): 30.0 g
withdrawal threshold, test value - pre-test value (MW) ([3]; 0.316 mg/kg i.v., Diabetes, 45 min): 24.0 g
withdrawal threshold, test value - pre-test value (MW) ([3]; 0.316 mg/kg i.v., Diabetes, 60 min): 16.0 g
withdrawal threshold, test value - pre-test value (MW) ([3]; 0.316 mg/kg i.v., Naive, 15 min): 17.0 g
withdrawal threshold, test value - pre-test value (MW) ([3]; 0.316 mg/kg i.v., Naive, 30 min): -5.0 g
withdrawal threshold, test value - pre-test value (MW) ([3]; 0.316 mg/kg i.v., Naive, 45 min): -5.0 g
withdrawal threshold, test value - pre-test value (MW) ([3]; 0.316 mg/kg i.v., Naive, 60 min): 2.0 g
withdrawal threshold, test value - pre-test value (MW) ([3]; 1 mg/kg i.v., Diabetes, 45 min): 34.0 g
withdrawal threshold, test value - pre-test value (MW) ([3]; 1 mg/kg i.v., Diabetes, 60 min): 27.0 g
withdrawal threshold, test value - pre-test value (MW) ([3]; 1 mg/kg i.v., Naive, 15 min): 42.0 g
withdrawal threshold, test value - pre-test value (MW) ([3]; 1 mg/kg i.v., Naive, 30 min): 28.0 g
withdrawal threshold, test value - pre-test value (MW) ([3]; 1 mg/kg i.v., Naive, 45 min): -2.0 g
withdrawal threshold, test value - pre-test value (MW) ([3]; 1 mg/kg i.v., Naive, 60 min): 7.0 g
inhibition of the polyneuropathically-induced withdrawal threshold reduction ([3]; 1 mg/kg i.v., after 15 minutes and 30 minutes, diabetic animals): complete inhibition
statistically significant minimal effective dose ([3]; i.v., healthy control animals): 1 mg/kg
dosage at which complete inhibition is reached ([3]; i.v., polyneuropathic pain model): 1 mg/kg
statistically significant minimal effective dose ([3]; i.v., rear paw of diabetic rats): 0.316 mg/kg and 0.3 mg/kg
